Data taken from patent publication US11629201B2, “PSMA-binding agents and uses thereof” (ITM Isotope Technologies Munich SE, priority 2017, dated 2023).

Test system: PC-3 PIP/flu tumor-bearing mice
Experiment: Biodistribution studies in PC-3 PIP/flu tumor-bearing mice
Details: for Tumor-to-blood / Tumor-to-kidney / Tumor-to-liver: PC-3 PIP tumor

**Q.** Which results are given for `O=C(O)CCC(NC(=O)NC(CCCCNC(=O)C(Cc1ccc2ccccc2c1)NC(=O)C1CCC(CNC(=O)C(CCCCNC(=O)CCCc2ccc(I)cc2)NC(=O)CN2CCN(CC(=O)O)CCN(CC(=O)O)CCN(CC(=O)O)CC2)CC1)C(=O)O)C(=O)O` (stereo not shown) [^177Lu-PSMA-ALB-03, metal not drawn]?
**A.** Tumor-to-blood (1 h p.i.): 0.31 ± 0.04; Tumor-to-kidney (1 h p.i.): 0.48 ± 0.07; Tumor-to-liver (1 h p.i.): 1.64 ± 0.61; Blood (4 h p.i.): 24.3 ± 3.60 % IA/g; Bone (4 h p.i.): 2.47 ± 0.39 % IA/g; Heart (4 h p.i.): 8.54 ± 1.18 % IA/g; Intestines (4 h p.i.): 3.71 ± 1.09 % IA/g; Kidneys (4 h p.i.): 24.5 ± 4.38 % IA/g; Liver (4 h p.i.): 4.56 ± 1.18 % IA/g; Lung (4 h p.i.): 14.21 ± 3.49 % IA/g; Muscle (4 h p.i.): 2.04 ± 0.37 % IA/g; PC-3 PIP Tumor (4 h p.i.): 19.9 ± 0.79 % IA/g; PC-3 flu Tumor (4 h p.i.): 5.32 ± 1.06 % IA/g; Salivary glands (4 h p.i.): 5.02 ± 1.17 % IA/g; Spleen (4 h p.i.): 4.76 ± 1.12 % IA/g; Stomach (4 h p.i.): 2.86 ± 1.03 % IA/g; Tumor-to-blood (4 h p.i.): 0.83 ± 0.10; Tumor-to-kidney (4 h p.i.): 0.83 ± 0.14; Tumor-to-liver (4 h p.i.): 4.60 ± 1.34; Blood (8 h p.i.): 23.5 ± 0.74 % IA/g; Bone (8 h p.i.): 2.71 ± 0.21 % IA/g; Heart (8 h p.i.): 8.12 ± 0.46 % IA/g; Intestines (8 h p.i.): 3.70 ± 0.40 % IA/g; Kidneys (8 h p.i.): 28.8 ± 1.49 % IA/g; Liver (8 h p.i.): 4.87 ± 0.42 % IA/g; Lung (8 h p.i.): 12.21 ± 1.32 % IA/g; Muscle (8 h p.i.): 2.01 ± 0.10 % IA/g; PC-3 PIP Tumor (8 h p.i.): 31.0 ± 5.79 % IA/g; PC-3 flu Tumor (8 h p.i.): 5.98 ± 0.91 % IA/g; Salivary glands (8 h p.i.): 5.49 ± 0.59 % IA/g; Spleen (8 h p.i.): 4.10 ± 0.14 % IA/g; Stomach (8 h p.i.): 2.92 ± 0.17 % IA/g; Tumor-to-blood (8 h p.i.): 1.32 ± 0.29; Tumor-to-kidney (8 h p.i.): 1.07 ± 0.18; Tumor-to-liver (8 h p.i.): 6.38 ± 1.28; Blood (24 h p.i.): 17.3 ± 1.38 % IA/g; Bone (24 h p.i.): 2.02 ± 0.31 % IA/g; Heart (24 h p.i.): 6.60 ± 1.01 % IA/g; Intestines (24 h p.i.): 2.19 ± 0.23 % IA/g; Kidneys (24 h p.i.): 24.7 ± 1.85 % IA/g; Liver (24 h p.i.): 3.35 ± 0.26 % IA/g; Lung (24 h p.i.): 9.86 ± 0.57 % IA/g; Muscle (24 h p.i.): 1.61 ± 0.18 % IA/g; PC-3 PIP Tumor (24 h p.i.): 53.8 ± 5.61 % IA/g; PC-3 flu Tumor (24 h p.i.): 5.47 ± 0.67 % IA/g; Salivary glands (24 h p.i.): 4.69 ± 0.33 % IA/g; Spleen (24 h p.i.): 3.75 ± 0.21 % IA/g; Stomach (24 h p.i.): 1.39 ± 0.27 % IA/g; Tumor-to-blood (24 h p.i.): 3.13 ± 0.35; Tumor-to-kidney (24 h p.i.): 2.17 ± 0.06; Tumor-to-liver (24 h p.i.): 16.1 ± 1.75; Blood (48 h p.i.): 12.5 ± 3.78 % IA/g; Bone (48 h p.i.): 1.63 ± 0.56 % IA/g; Heart (48 h p.i.): 4.40 ± 1.18 % IA/g; Intestines (48 h p.i.): 1.73 ± 0.50 % IA/g; Kidneys (48 h p.i.): 22.6 ± 2.69 % IA/g; Liver (48 h p.i.): 2.53 ± 0.77 % IA/g; Lung (48 h p.i.): 7.45 ± 2.06 % IA/g; Muscle (48 h p.i.): 1.32 ± 0.41 % IA/g; PC-3 PIP Tumor (48 h p.i.): 72.3 ± 24.7 % IA/g; PC-3 flu Tumor (48 h p.i.): 5.69 ± 3.65 % IA/g; Salivary glands (48 h p.i.): 3.45 ± 1.09 % IA/g; Spleen (48 h p.i.): 3.79 ± 0.89 % IA/g; Stomach (48 h p.i.): 1.49 ± 0.48 % IA/g; Tumor-to-blood (48 h p.i.): 5.94 ± 1.53; Tumor-to-kidney (48 h p.i.): 3.17 ± 0.84; Tumor-to-liver (48 h p.i.): 29.0 ± 5.26; Blood (96 h p.i.): 7.37 ± 0.64 % IA/g; Bone (96 h p.i.): 1.07 ± 0.27 % IA/g; Heart (96 h p.i.): 3.15 ± 0.28 % IA/g; Intestines (96 h p.i.): 1.21 ± 0.26 % IA/g; Kidneys (96 h p.i.): 16.1 ± 1.69 % IA/g; Liver (96 h p.i.): 1.78 ± 0.03 % IA/g; Lung (96 h p.i.): 5.56 ± 0.54 % IA/g; Muscle (96 h p.i.): 0.91 ± 0.15 % IA/g; PC-3 PIP Tumor (96 h p.i.): 75.7 ± 2.46 % IA/g; PC-3 flu Tumor (96 h p.i.): 3.52 ± 0.54 % IA/g; Salivary glands (96 h p.i.): 2.19 ± 0.1 % IA/g; Spleen (96 h p.i.): 3.23 ± 0.53 % IA/g; Stomach (96 h p.i.): 0.91 ± .010 % IA/g; Tumor-to-blood (96 h p.i.): 10.3 ± 0.57; Tumor-to-kidney (96 h p.i.): 4.7 ± 0.38; Tumor-to-liver (96 h p.i.): 42.6 ± 1.90; Blood (144 h p.i.): 6.02 ± 0.60 % IA/g; Bone (144 h p.i.): 1.14 ± 0.23 % IA/g; Heart (144 h p.i.): 2.55 ± 0.25 % IA/g; Intestines (144 h p.i.): 0.88 ± 0.18 % IA/g; Kidneys (144 h p.i.): 11.2 ± 3.82 % IA/g; Liver (144 h p.i.): 1.50 ± 0.14 % IA/g; Lung (144 h p.i.): 4.99 ± 1.00 % IA/g; Muscle (144 h p.i.): 0.54 ± 0.07 % IA/g; PC-3 PIP Tumor (144 h p.i.): 68.9 ± 8.80 % IA/g; PC-3 flu Tumor (144 h p.i.): 2.77 ± 0.41 % IA/g; Salivary glands (144 h p.i.): 1.67 ± 0.27 % IA/g; Spleen (144 h p.i.): 2.94 ± 0.39 % IA/g; Stomach (144 h p.i.): 0.73 ± 0.10 % IA/g; Tumor-to-blood (144 h p.i.): 11.4 ± 0.47; Tumor-to-kidney (144 h p.i.): 6.44 ± 1.27; Tumor-to-liver (144 h p.i.): 46.0 ± 2.53; Blood (192 h p.i.): 5.29 ± 0.18 % IA/g; Bone (192 h p.i.): 0.83 ± 0.22 % IA/g; Heart (192 h p.i.): 2.08 ± 0.14 % IA/g; Intestines (192 h p.i.): 0.96 ± 0.03 % IA/g; Kidneys (192 h p.i.): 7.35 ± 0.92 % IA/g; Liver (192 h p.i.): 1.25 ± 0.20 % IA/g; Lung (192 h p.i.): 4.17 ± 0.68 % IA/g; Muscle (192 h p.i.): 0.62 ± 0.04 % IA/g; PC-3 PIP Tumor (192 h p.i.): 58.9 ± 12.4 % IA/g; PC-3 flu Tumor (192 h p.i.): 2.42 ± 0.23 % IA/g; Salivary glands (192 h p.i.): 1.55 ± 0.06 % IA/g; Spleen (192 h p.i.): 3.13 ± 0.90 % IA/g; Stomach (192 h p.i.): 0.78 ± 0.07 % IA/g; Tumor-to-blood (192 h p.i.): 11.1 ± 1.97; Tumor-to-kidney (192 h p.i.): 7.97 ± 0.70; Tumor-to-liver (192 h p.i.): 47.1 ± 2.44
